Results published in patent publication US9914910B2, “Methods of preserving and protecting pancreatic beta cells and treating or preventing diabetes by inhibiting NOX-1” (Eastern Virginia Medical School, priority 2013, dated 2018).

Key:
[1] = tested on: beta cells; experiment: Pro-caspase 3 cleavage after PIC, beta cell survival; assay type: cell-based; details: C1 100 nM, ML171 10 μM
Method: (§1) Loss of beta cell viability in response to inflammatory cytokines was assessed by measurement of caspase 3 activation and quantified microscopy. […] Measured by pro-caspase 3 cleavage (A) or quantified microscopy of YO-PRO-1 stained cells (B). […] Shown are RFU from fluorescent capase3 substrate, ##p<0.01 relative to control; *p<0.05; **p<0.01 relative to PIC (A) and Microscopic apoptotic index ###p<0.001 relative to control; ***p<0.001; **p<0.01 relative to PIC (B).

[2] = tested on: beta cells; experiment: Quantified microscopy of YO-PRO-1 stained cells after PIC; assay type: cell-based; details: C1 100 nM, ML171 10 μM
Method: as §1

[3] = tested on: NOX-1 gene expression in beta cells; experiment: Inflammatory cytokine-induced gene expression in beta cells; assay type: cell-based
Description: Inflammatory cytokines (PIC; IFNγ, TNFα, IL-1β)) induce expression of NOX-1 and MCP-1 in beta cells. Elevated NOX-1 is associated with beta cell dysfunction and NOX-1 expression is associated with feed-forward generation of reactive oxygen species. […] Shown are fold increase, *p<0.05.
Feed-forward activation of NOX-1 can also be reduced with siRNA. Inflammatory cytokines (PIC; IFNγ, TNFα, IL-1β) induce the gene expression of NOX-1 that is further regulated in a feed-forward manner involving reactive oxygen species generated by NOX-1.
Compounds that inhibit interleukin-12, interleukin-23 and/or STAT4 signaling disrupt NOX-1 upregulation by inflammatory cytokines.

[4] = tested on: beta cells; experiment: Static glucose-stimulated-insulin-secretion after PIC; assay type: cell-based; details: 100 nM, 3 mM vs 16 mM glucose
Method: Pyrazolopyridine dione compound class of dual selective NOX1/4 inhibitors were also evaluated on preservation of beta cell function and survival with concomitant exposure to inflammatory cytokines. Two NOX1/4 pyrazolopyridine dione compounds C1 and C2 (Methyl-2-phenyl-5-(2-pyridinylmethyl)-1H-pyrazolo[4,3-c]pyridine-3,6(2H,5H)-dione and 5-Benzyl-4-methyl-2-phenyl-1H-pyrazolo[4,3-c]pyridine-3,6(2H,5H)-dione, respectively) were assessed at 100 nM. […] Inflammatory cytokines (PIC; IFNγ, TNFα, IL-1β)) abolished this response. The glucose-stimulated-insulin-secretion response was preserved in the presence of inflammatory cytokines by pyrazolopyridine dione compounds C1 and C2. *p<0.05, **p<0.01.

[5] = mice, dosing 1000 mg/Kg per os; cited from earlier work
[6] = tested on: NOX-1 gene expression in primary mouse islets; experiment: PIC-induced NOX-1 gene expression (RT-PCR); assay type: cell-based; details: NCTT-1 100 nM, ML171 1 μM
Description: Human donor islets were obtained from integrated islet distribution project (http://iidp.coh.org) and cultured in CMRL media (Mediatech, Manassas, Va.). Mouse islets were freshly isolated from 8-week old male C57BL/6J mice (Jackson Laboratory, Bar Harbor, Me.) by common bile duct cannulation and collagenase digestion. Islets were hand picked prior to use. […] Total RNA was isolated using the RNeasy Mini Kit (Qiagen, Valencia, Calif.) and cDNA prepared using MMLV reverse transcriptase (Life Technologies) and random hexamers (Life Technologies). Jump Start Taq polymerase (Life Technologies) was used in PCR reactions. Primers used with SYBR Green 1 (Molecular Probes, Carlsbad, Calif.) probes: […] GAPDH forward [NT] ID NO: 3); GAPDH reverse [NT] NO: 4). RT-PCR reactions were performed in triplicate (CFX96 Bio-Rad, Hercules, Calif.). Taqman primers (Life Technologies) were also used.

[7] = tested on: MCP-1, IL-12p40, IL-12 p35, IFNγ gene expression in primary mouse islets; experiment: Cytokine-induced target gene expression (real time PCR); assay type: cell-based; details: NCTT-1 100 nM, ML171 1 μM
Method: (§2) Total RNA was isolated using the RNeasy Mini Kit (Qiagen, Valencia, Calif.) and cDNA prepared using MMLV reverse transcriptase (Life Technologies) and random hexamers (Life Technologies). Jump Start Taq polymerase (Life Technologies) was used in PCR reactions. […] RT-PCR reactions were performed in triplicate (CFX96 Bio-Rad, Hercules, Calif.). Taqman primers (Life Technologies) were also used. Data was normalized to the housekeeping gene GAPDH and analyzed using the 2-ΔΔCT method.
Data is quantitative real time PCR gene expression analysis from triplicate experiments performed in replicate. Fold induction in gene expression over control (non cytokine-treated) islets is graphed.

[8] = tested on: MCP-1 expression in INS-1; experiment: Cytokine-induced MCP-1 gene expression (real time PCR); assay type: cell-based, rat; details: INS-1, 10 nM
Method: as §2
Data is quantitative real time PCR gene expression analysis from triplicate experiments performed in replicate.

[9] = target: T1, NOX-1 (Homo sapiens, UniProt Q9Y5S8); details: cited from earlier work
T1 sequence (Q9Y5S8 1-564): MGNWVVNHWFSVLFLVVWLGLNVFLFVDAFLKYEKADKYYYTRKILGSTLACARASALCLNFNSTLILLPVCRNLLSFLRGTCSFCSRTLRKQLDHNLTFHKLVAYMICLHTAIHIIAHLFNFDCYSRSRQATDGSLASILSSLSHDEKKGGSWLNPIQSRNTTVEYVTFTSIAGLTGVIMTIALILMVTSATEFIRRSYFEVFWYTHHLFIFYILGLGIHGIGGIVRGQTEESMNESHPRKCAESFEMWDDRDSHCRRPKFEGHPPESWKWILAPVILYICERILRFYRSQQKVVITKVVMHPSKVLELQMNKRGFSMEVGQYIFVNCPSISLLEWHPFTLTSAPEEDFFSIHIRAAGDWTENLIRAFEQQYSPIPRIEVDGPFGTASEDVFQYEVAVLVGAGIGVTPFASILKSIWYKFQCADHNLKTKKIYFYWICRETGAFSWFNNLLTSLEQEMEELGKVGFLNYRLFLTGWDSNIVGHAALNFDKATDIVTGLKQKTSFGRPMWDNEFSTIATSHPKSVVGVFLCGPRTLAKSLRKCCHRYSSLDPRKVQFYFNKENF
T1 sequence (P13498 1-195 partner): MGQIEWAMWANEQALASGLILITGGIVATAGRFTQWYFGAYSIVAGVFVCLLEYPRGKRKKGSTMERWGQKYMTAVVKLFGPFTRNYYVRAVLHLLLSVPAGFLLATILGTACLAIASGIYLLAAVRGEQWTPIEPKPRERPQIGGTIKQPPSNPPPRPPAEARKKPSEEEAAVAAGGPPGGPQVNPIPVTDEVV

[10] = tested on: interleukin-12 and interleukin-23 production; details: cited from earlier work

## Methyl-2-phenyl-5-(2-pyridinylmethyl)-1H-pyrazolo[4,3-c]pyridine-3,6(2H,5H)-dione [C1]
[1]
  inflammatory cytokine-induced cell death, pro-caspase 3 cleavage: significantly protected
[2]
  inflammatory cytokine-induced cell death, YO-PRO-1 microscopic apoptotic index: significantly protected
[3]
  inflammatory cytokine-induced gene expression (NOX-1 and MCP-1): dose-related inhibition
[4]
  glucose-stimulated-insulin-secretion response with PIC: preserved

## Cc1c2c(=O)n(-c3ccccc3Cl)[nH]c2cc(=O)n1Cc1ccccn1 [GKT-136901]
[5]
  tolerability: well tolerated

## Cc1c2c(=O)n(-c3ccccc3)[nH]c2cc(=O)n1Cc1ccccn1 [NCTT-1]
[6]
  induction of gene NOX-1 by PIC: attenuated
[7]
  induction of gene IFNγ by PIC: attenuated
  induction of gene IL-12 p35 by PIC: attenuated
  induction of gene IL-12p40 by PIC: attenuated
  induction of gene MCP-1 by PIC: attenuated
[8]
  cytokine-induced MCP-1 expression: attenuated cytokine-induced MCP-1 expression

## c1ccc2c(c1)[I+]c1ccccc1-2 [diphenylene iodonium]
[9]
  selectivity among NOX isotypes (in words): non-selective

## Cc1cccc(/C=N/Nc2cc(N3CCOCC3)nc(OCCc3ccccn3)n2)c1 [STA 5326, 6-morpholino-N-((E)-m-tolylmethyleneamino)-2-(2-(2-pyridyl)ethoxy)pyrimidin-4-amine]
[3]; 1 μM
  induction of NOX-1 gene expression by inflammatory cytokines: inhibited
[10]
  interleukin-12 and interleukin-23 production: inhibits interleukin-12 and interleukin-23 production

## Cc1c2c(=O)n(-c3ccccc3)[nH]c2cc(=O)n1Cc1ccccc1 [C2, 5-Benzyl-4-methyl-2-phenyl-1H-pyrazolo[4,3-c]pyridine-3,6(2H,5H)-dione]
[3]
  inflammatory cytokine-induced gene expression (NOX-1 and MCP-1): dose-related inhibition
[4]
  glucose-stimulated-insulin-secretion response with PIC: preserved

## COc1cc(C(C)=O)ccc1O [apocynin]
[9]
  selectivity among NOX isotypes (in words): non-selective
